ChEMBL document CHEMBL1201862, “PubChem BioAssay data set” (2004)
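All cell lines were grown in 96-well plates and treated with compound for 48 hours. The concentration for 50% growth inhibition is given as GI50.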 The source made the active and inactive calls. No stated cut-off is given here; in the data, active = GI50 up to about 1.1 µM and inactive = higher.

What was measured:
Assay in all cases: DTP human tumour cell line panel, 48 h
786-0 = system: 786-0
A498 = system: A498
A549 = system: A549
ACHN = system: ACHN
CCRF-CEM = system: CCRF-CEM
DLD-1 = system: DLD-1
DMS-114 = system: DMS-114
EKVX = system: EKVX
HCC 2998 = system: HCC 2998
HCT-116 = system: HCT-116
HL-60 = system: HL-60
HOP-18 = system: HOP-18
HOP-62 = system: HOP-62
HT-29 = system: HT-29
IGROV-1 = system: IGROV-1
K562 = system: K562
KM-20L2 = system: KM-20L2
KM12 = system: KM12
LOX IMVI = system: LOX IMVI
LXFL 529 = system: LXFL 529
M14 = system: M14
MOLT-4 = system: MOLT-4
Malme-3M = system: Malme-3M
NCI-H226 = system: NCI-H226
NCI-H23 = system: NCI-H23
NCI-H460 = system: NCI-H460
OVCAR-3 = system: OVCAR-3
OVCAR-4 = system: OVCAR-4
OVCAR-5 = system: OVCAR-5
OVCAR-8 = system: OVCAR-8
RPMI-8226 = system: RPMI-8226
RXF 393 = system: RXF 393
SF-268 = system: SF-268
SF-295 = system: SF-295
SF-539 = system: SF-539
SK-MEL-28 = system: SK-MEL-28
SK-OV-3 = system: SK-OV-3
SN12C = system: SN12C
SNB-19 = system: SNB-19
SNB-75 = system: SNB-75
SNB-78 = system: SNB-78
SR = system: SR
SW-620 = system: SW-620
TK-10 = system: TK-10
U-251 = system: U-251
UACC-257 = system: UACC-257
UACC-62 = system: UACC-62
UO-31 = system: UO-31
XF498 = system: XF498
CAKI-1 = system: CAKI-1
COLO 205 = system: COLO 205
DMS-273 = system: DMS-273
HCT-15 = system: HCT-15
HOP-92 = system: HOP-92
M19-MEL = system: M19-MEL
NCI-H522 = system: NCI-H522
SK-MEL-2 = system: SK-MEL-2
SK-MEL-5 = system: SK-MEL-5

Cc1[nH]c2ccccc2c1C1Cc2ccccc2N1C(=O)C#Cc1ccc([N+](=O)[O-])cc1 (stereo unspecified)
GI50 (786-0): > 100 µM (inactive)
GI50 (A498): > 100 µM (inactive)
GI50 (A549): > 100 µM (inactive)
GI50 (ACHN): > 100 µM (inactive)
GI50 (CCRF-CEM): 19.2 µM (inactive)
GI50 (DLD-1): > 100 µM (inactive)
GI50 (DMS-114): > 100 µM (inactive)
GI50 (EKVX): > 100 µM (inactive)
GI50 (HCC 2998): > 100 µM (inactive)
GI50 (HCT-116): > 100 µM (inactive)
GI50 (HL-60): > 100 µM (inactive)
GI50 (HOP-18): > 100 µM (inactive)
GI50 (HOP-62): > 100 µM (inactive)
GI50 (HT-29): > 100 µM (inactive)
GI50 (IGROV-1): > 100 µM (inactive)
GI50 (K562): > 100 µM (inactive)
GI50 (KM-20L2): > 100 µM (inactive)
GI50 (KM12): > 100 µM (inactive)
GI50 (LOX IMVI): > 100 µM (inactive)
GI50 (LXFL 529): > 100 µM (inactive)
GI50 (M14): > 100 µM (inactive)
GI50 (MOLT-4): 8.87 µM (inactive)
GI50 (Malme-3M): > 100 µM (inactive)
GI50 (NCI-H226): > 100 µM (inactive)
GI50 (NCI-H23): > 100 µM (inactive)
GI50 (NCI-H460): > 100 µM (inactive)
GI50 (OVCAR-3): > 100 µM (inactive)
GI50 (OVCAR-4): 43.7 µM (inactive)
GI50 (OVCAR-5): > 100 µM (inactive)
GI50 (OVCAR-8): > 100 µM (inactive)
GI50 (RPMI-8226): 76 µM (inactive)
GI50 (RXF 393): 6.81 µM (inactive)
GI50 (SF-268): > 100 µM (inactive)
GI50 (SF-295): > 100 µM (inactive)
GI50 (SF-539): > 100 µM (inactive)
GI50 (SK-MEL-28): > 100 µM (inactive)
GI50 (SK-OV-3): > 100 µM (inactive)
GI50 (SN12C): > 100 µM (inactive)
GI50 (SNB-19): > 100 µM (inactive)
GI50 (SNB-75): > 100 µM (inactive)
GI50 (SNB-78): > 100 µM (inactive)
GI50 (SR): 8 µM (inactive)
GI50 (SW-620): > 100 µM (inactive)
GI50 (TK-10): > 100 µM (inactive)
GI50 (U-251): > 100 µM (inactive)
GI50 (UACC-257): > 100 µM (inactive)
GI50 (UACC-62): > 100 µM (inactive)
GI50 (UO-31): 51.9 µM (inactive)
GI50 (XF498): > 100 µM (inactive)

Cc1c(C(=O)CC(=O)C(=O)Nc2ccc(Cl)cc2)[n+]([O-])c2ccccc2[n+]1[O-]
GI50 (786-0): > 100 µM (inactive)
GI50 (A498): > 100 µM (inactive)
GI50 (A549): > 100 µM (inactive)
GI50 (ACHN): > 100 µM (inactive)
GI50 (CAKI-1): > 100 µM (inactive)
GI50 (CCRF-CEM): > 100 µM (inactive)
GI50 (COLO 205): > 100 µM (inactive)
GI50 (DLD-1): > 100 µM (inactive)
GI50 (DMS-114): > 100 µM (inactive)
GI50 (DMS-273): > 100 µM (inactive)
GI50 (EKVX): > 100 µM (inactive)
GI50 (HCT-116): > 100 µM (inactive)
GI50 (HCT-15): > 100 µM
GI50 (HL-60): > 100 µM (inactive)
GI50 (HOP-18): 75 µM (inactive)
GI50 (HOP-92): > 100 µM (inactive)
GI50 (IGROV-1): > 100 µM (inactive)
GI50 (K562): > 100 µM (inactive)
GI50 (KM-20L2): > 100 µM (inactive)
GI50 (KM12): > 100 µM (inactive)
GI50 (LXFL 529): > 100 µM (inactive)
GI50 (M14): > 100 µM (inactive)
GI50 (M19-MEL): > 100 µM (inactive)
GI50 (MOLT-4): > 100 µM (inactive)
GI50 (Malme-3M): > 100 µM (inactive)
GI50 (NCI-H226): > 100 µM (inactive)
GI50 (NCI-H23): > 100 µM (inactive)
GI50 (NCI-H460): > 100 µM (inactive)
GI50 (NCI-H522): > 100 µM (inactive)
GI50 (OVCAR-3): > 100 µM (inactive)
GI50 (OVCAR-4): > 100 µM (inactive)
GI50 (OVCAR-5): > 100 µM (inactive)
GI50 (OVCAR-8): > 100 µM (inactive)
GI50 (RPMI-8226): > 100 µM (inactive)
GI50 (SF-268): > 100 µM (inactive)
GI50 (SF-295): > 100 µM (inactive)
GI50 (SF-539): > 100 µM (inactive)
GI50 (SK-MEL-28): > 100 µM (inactive)
GI50 (SK-MEL-2): > 100 µM (inactive)
GI50 (SK-MEL-5): > 100 µM (inactive)
GI50 (SK-OV-3): > 100 µM (inactive)
GI50 (SN12C): > 100 µM (inactive)
GI50 (SNB-19): > 100 µM (inactive)
GI50 (SNB-75): 18.7 µM (inactive)
GI50 (SNB-78): > 100 µM (inactive)
GI50 (SW-620): > 100 µM (inactive)
GI50 (TK-10): > 100 µM (inactive)
GI50 (U-251): > 100 µM (inactive)
GI50 (UACC-257): > 100 µM (inactive)
GI50 (UACC-62): > 100 µM (inactive)
GI50 (UO-31): > 100 µM (inactive)
GI50 (XF498): > 100 µM (inactive)
